Entries after “also recorded” stand apart in the source; their conditions may differ.
Legend:
[1] = tested on: PAH patients; details: female vs male PAH patients (p=0.3); cited from earlier work
[2] = tested on: CMs and PAH-ECs; test: PAH-RVH chip prepared with CMs and PAH-ECs, efficacy of anti-PAH drugs; type: cell-based, human; details: chips prepared with CMs and PAH-ECs
Excerpt: The modified chip device can be used, for example, for growing both cardiomyocytes (CMs) in the study of cardiovascular disease, and pulmonary arterial endothelial cells (ECs) in the study of pulmonary vascular diseases. The pulmonary arterial ECs, for example, can be collected from the pulmonary arteries of healthy donors (N-ECs) and that of PAH patients (PAH-ECs). We have seen that PAH is an example of a disease that can benefit from improved treatments developed with the systems and methods taught herein. Through the growing of CMs and either N-ECs or PAH-ECs in respective compartments or channels, for example, we can measure the influence PAH-ECs on CMs by measuring various soluble cellular markers, assessing the contractility of CMs, evaluating the expression of genes by CMs, and study the influence of anti-PAH PAH drugs on the release of hypertrophy inducing agents and hypertrophic markers and CM contractility.
We developed a drug therapy using the systems and methods. We used two anti-PAH drugs, sildenafil and bosentan, on chips prepared with CMs and PAH-ECs, the drug reduced the extent of CM hypertrophy, improved the contractility, and reduced both hypertrophy-inducing agents and hypertrophic markers. From our study, one of skill will understand that the systems and methods can identify the interactions between PAH-afflicted ECs and CMs and assess the efficacy of anti-PAH drugs in ameliorating pulmonary arterial hypertension right ventricular hypertrophy (PAH-RVH).

[3] = tested on: PAH patients; test: Responsiveness of female and male PAH patients to anti-PAH drugs; type: in vivo, human; details: for responsiveness of female PAH patients: 'we have found'
[4] = tested on: PAH-ECs/SMCs/ADCs of male and female patients; test: PAH chip, sex-specific therapeutic response to bosentan; type: cell-based, human
Experimental: As reported in our recent publication, we first characterized the cells for various markers and seeded control and PAH cells on the respective channels of the chips at a density of 2×10^6 cells/mL of adventitial cells (ADCs) or SMCs and 5˜10×10^6 cells/mL of ECs. SMCs were seeded in rat tail type I collagen solution (Corning Inc., NY). We fed the cells with the media via the two outermost channels. In experiment when chips were seeded with three different cell types, we first instilled collagen (2 mg/mL) alone or SMC mixed with collagen into the medial channel and allowed 20 minutes for collagen to form gel and then seeded ECs and ADCs 20 minutes apart. The cell-laden chips thus prepared were placed in a humidified chamber and let them grow in a CO2 incubator for 5-8 days. Each day, the medium was removed and replaced with 150 μL fresh media.
(§1) Into chips prepared by seeding PAH-ECs/SMCs/ADCs of male and female patients, we infused 50 µM bosentan starting from day 4 of cell seeding and continued the infusion for an additional 3 days. To determine whether the drug had any preventive effects, we treated the cell-laden chips with 50 µM bosentan on day 1 of seeding and let the cells grow for 6 more days with no treatment. For studying the influence of growth hormones and anti-PAH drug on cellular functions and remodeling, we seeded male and female PAH-ECs, QD705-labeled or unlabeled PAH-SMCs and PAH-ADCs. We assessed the deposition of human ColT1, expression of aromatase (an enzyme that synthesizes estrogen) and CYP1B1 (an estrogen-metabolizing enzyme) and then measured arterial remodeling and muscularization.
For assessing the effect of the drug pulmonary arterial thickening, we assumed that ECs and SMCs grow in their respective channels, the intimal and medial layers of the chip, not outside their assigned layers. If ECs or SMCs grow outside their original seeding channels, we considered out-of-designated channel growth as intimal or medial layer thickening, respectively. We also considered the migration of SMCs from the medial to intimal as muscularization and that the number of SMCs that grow in the intimal layers is the degree of muscularization. These assumptions were based on PAH pathology whereby non-muscularized distal arteries/arterioles become muscularized and show SM-like cells from preexisting SMCs. We used phase contrast microscopy, immunostaining, and quantum dot labeling to draw line between the growth zones of different cells and for counting and identifying cells.
For demarcating boundaries of different cell growth areas, we first imaged the chips using a phase-contrast microscope and then stained the cells for imaging using a confocal microscope. For calculating the extent of intimal and medial thickening, we calculated the average of the lengths of five to seven diametrically uneven points of the same layer. To determine the degree of muscularization, we grew QD-labeled N-SMC/PAH-SMCs on the chip and stained the chips for FSP-1 and CD31 antibodies and counted the number of FSP-1+CD31− or QD-labeled SMCs in all three layers of the chip.

[5] = tested on: PACs of female patients and male patients; test: Chips with PACs of female and male PAH patients treated with estrogen and growth factor; type: cell-based, human
Experimental: as §1
For assessing the effect of the drug pulmonary arterial thickening, we assumed that ECs and SMCs grow in their respective channels, the intimal and medial layers of the chip, not outside their assigned layers. If ECs or SMCs grow outside their original seeding channels, we considered out-of-designated channel growth as intimal or medial layer thickening, respectively. We also considered the migration of SMCs from the medial to intimal as muscularization and that the number of SMCs that grow in the intimal layers is the degree of muscularization. […]

[6] = bosentan-treated female vs male chips
[7] = early treatment, female chips compared with male counterparts
[8] = female chips, 50 µM bosentan infused from day 4 for 3 days
[9] = preventive: treated on day one after seeding, then 6 days without treatment, female vs male chips

## COc1ccccc1Oc1c(NS(=O)(=O)c2ccc(C(C)(C)C)cc2)nc(-c2ncccn2)nc1OCCO [bosentan]
[1]
  responsiveness of female PAH patients compared with male patients, clinical data: more responsive; also recorded: responsive
[2]
  contractility of CMs: improved
  extent of CM hypertrophy: reduced
  hypertrophic markers: reduced
  hypertrophy-inducing agents: reduced
[3]
  responsiveness of female PAH patients: more responsive
[4]; [6]
  ColT1a deposition, compartment-specific analysis: lower in bosentan-treated female chips than in the male chips
  laminin deposition, compartment-specific analysis: lower in bosentan-treated female chips than in the male chips
[4]; chips with cells from female vs male PAH patients, 50 µM bosentan
  responsiveness of female chips compared with male chips: more responsive
[4]; [7]
  intimal deposition of ColT1a: decreases
  intimal deposition of laminin: decreases
[4]; [8]
  CYP1B1 expression in the medial layer: lowered
  migration of PAH-SMCs toward the luminal and intimal layers: slowed
  thickening of the medial layer: reduced
[4]; female vs male chips, counting QD705+ PAH-SMCs in intimal layers
  level of muscularization: lower level of muscularization
[4]; [9]
  expression of CYP1B1: declined more in the medial layer of the female chips than in the male chips
  presence of PAH-SMCs in the endothelial layer: lower in the female chips than in the male chips

## CCCCC[C@H](O)/C=C/[C@@H]1[C@H]2C/C(=C/CCCC(=O)O)O[C@H]2C[C@H]1O [epoprostenol]
[3]
  responsiveness of female PAH patients: more responsive

## CCCNS(=O)(=O)Nc1ncnc(OCCOc2ncc(Br)cn2)c1-c1ccc(Br)cc1 [macitentan]
[3]
  responsiveness of female PAH patients: more responsive

## CC(C)N(CCCCOCC(=O)NS(C)(=O)=O)c1cnc(-c2ccccc2)c(-c2ccccc2)n1 [selexipag]
[3]
  responsiveness of female PAH patients: more responsive

## CCCc1nn(C)c2c(=O)[nH]c(-c3cc(S(=O)(=O)N4CCN(C)CC4)ccc3OCC)nc12 [sildenafil]
[2]
  contractility of CMs: improved
  extent of CM hypertrophy: reduced
  hypertrophic markers: reduced
  hypertrophy-inducing agents: reduced
[3]; male PAH patients, 'we have also found'
  responsiveness of male PAH patients: more responsive

## CCCCC[C@H](O)CC[C@@H]1[C@H]2Cc3cccc(OCC(=O)O)c3C[C@H]2C[C@H]1O [treprostinil]
[3]
  responsiveness of female PAH patients: more responsive

## Estrogen
[5]; chips with PACs from female vs male PAH patients
  responsiveness of female chips compared with male chips: more responsive
[5]; chips with PACs of female patients vs male patients
  arterial remodeling: more extensive arterial remodeling
